Test results reported in the supplement of paper PMC10883282.
± gives the standard deviation of the averaged measurements.

Assays:
Assay in all cases: relative viability vs DMSO control (72 h) (fraction); higher = more viable cells
[1] = tested on: KHOS-240S
How it was run: (§1)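 Serially diluted compound, 2.5 µl from source plates spanning 10 mM to 0.0002 mM, was added 24 h after sarcoma cell lines were seeded in 384-well plates at densities targeting 80–90% confluence. Plates then sat 72 h at 37 °C, 5% CO2, with 0.1% DMSO vehicle and a 5 µM positive control. Relative viability came from ATPLite as percent growth, averaged over up to triplicate wells, and was rescaled with 1 as full and 0 as none.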

[2] = tested on: SW1353
How it was run: as §1

[3] = tested on: G401
How it was run: as §1

[4] = tested on: SW684
How it was run: as §1

[5] = tested on: MES-SA
How it was run: as §1

[6] = tested on: SK-LMS-1
How it was run: as §1

C=CC(=O)Nc1cccc(Nc2nc(Nc3ccc(N4CCN(C(C)=O)CC4)cc3OC)ncc2C(F)(F)F)c1 [Rociletinib]
relative viability
Details | [1] | [2] | [3] | [4] | [5] | [6]
0.00017 µM | 1.08 ± 0.059 | 1.04 ± 0.025 | 1.04 ± 0.039 | 1.13 ± 0.041 | 0.95 ± 0.023 | 1.07 ± 0.012
0.00051 µM | 1.06 ± 0.033 | 1 ± 0.035 | 1.07 ± 0.048 | 1.16 ± 0.057 | 0.955 ± 0.016 | 1.089 ± 0.0035
0.00152 µM | 1.07 ± 0.03 | 1.01 ± 0.018 | 1.04 ± 0.013 | 1.16 ± 0.045 | 0.942 ± 0.031 | 1.07 ± 0.058
0.00457 µM | 1.07 ± 0.037 | 1.06 ± 0.056 | 1.05 ± 0.061 | 1.17 ± 0.022 | 0.957 ± 0.028 | 1.07 ± 0.025
0.01372 µM | 1.07 ± 0.061 | 1 ± 0.06 | 1.04 ± 0.054 | 1.18 ± 0.015 | 0.942 ± 0.017 | 1.05 ± 0.069
0.04115 µM | 1.03 ± 0.03 | 1.01 ± 0.042 | 1.02 ± 0.052 | 1.18 ± 0.076 | 0.944 ± 0.018 | 1.03 ± 0.019
0.1235 µM | 1.08 ± 0.056 | 1.01 ± 0.027 | 1.05 ± 0.033 | 1.14 ± 0.016 | 0.926 ± 0.051 | 1.04 ± 0.012
0.3704 µM | 1.02 ± 0.042 | 0.962 ± 0.025 | 1.02 ± 0.048 | 1.1 ± 0.053 | 0.9383 ± 0.0079 | 0.961 ± 0.06
1.111 µM | 0.928 ± 0.046 | 0.769 ± 0.032 | 0.827 ± 0.029 | 1.004 ± 0.0092 | 0.765 ± 0.01 | 0.847 ± 0.033
3.333 µM | 0.774 ± 0.017 | 0.594 ± 0.013 | 0.54 ± 0.014 | 0.908 ± 0.016 | 0.329 ± 0.012 | 0.638 ± 0.0093
10 µM | 0.491 ± 0.022 | 0.338 ± 0.021 | 0.211 ± 0.016 | 0.666 ± 0.046 | 0.193 ± 0.014 | 0.373 ± 0.023
